Data on 7 compounds can be found in patent US20210371422A1, “MORPHINAN DERIVATIVE” (priority 2016, published 2021).

The target of series [1] is T1, hERG potassium channel (Homo sapiens, UniProt Q12809).
T1 construct: host or cells: CHO cells
The series can be described thus: hERG potassium channel inhibition test (automatic patch clamp). Format: cell-based. The settings on record: for hERG channel inhibitory effect: hERG-expressing CHO cells. The protocol: Human Ether-a-Go-Go Related Gene (hERG) Potassium Channel Inhibition Test
The test was performed with Port-a-Patch automatic patch clump apparatus (Manion Technologies) using hERG channel-stably expressing CHO cells (purchased from Channelopathy Foundation). The membrane potential of the cells was maintained at −80 mV, then there were applied a depolarization pulse at +20 mV for 1.5 seconds, and a following test pulse at −50 mV for 1.5 seconds at a frequency of 1 time per 10 seconds, and the hERG current was confirmed as a tail current induced by the test pulse. The test compound was dissolved in an extracellular fluid (137 mM NaCl, 4 mM KCl, 1.8 mM CaCl2, 1 mM MgCl2, 10 mM D(+)-glucose, 10 mM HEPES, pH 7.4), and the solution was […] at room temperature for 5 minutes. The inhibition ratio was obtained from the ratio of the tail current value observed after the compound was applied based on the tail current value observed before the compound was applied, which was taken as 100%.

The target in series [2] is T2, human opioid δ receptor (Homo sapiens, UniProt P41143).
T2 construct: host or cells: CHO cells
The series is described as follows: Opioid receptor function test (Lance Ultra cAMP Kit), δ receptor. Format: cell-based. The following applies: for EC50: CHO cells expressing human δ receptor, cAMP, in the presence of forskolin, read-out: δ receptor EC° C.; for Emax: ratio to maximum reaction of control drug SNC80 (100%). The protocol: (§1) Opioid Receptor Function Test
(§2) The functional activities of the compounds provided by the present invention on the μ, δ, and κ opioid receptors were investigated.
(§3) The test was performed by using Lance Ultra cAMP Kit (PerkinElmer) according to a method predetermined for the kit. In the evaluation of the agonistic activity, CHO cells expressing each of the human opioid receptors (δ, μ, and κ, accession numbers and catalog numbers are mentioned below) and 10 μM of each test compound were reacted for 30 minutes in an assay buffer (1×HESS, […], pH 7.4, […] (isobutylmethylxanthine), 7.5% BSA) in the presence of forskolin. Subsequently, the cAMP detection reagent included in the kit was added, and 1 hour afterward, time-resolved fluorescence measurement was performed by using the EnVision plate reader (PerkinElmer). The test compounds and the control drugs (δ: SNC80, μ: DAMGO, K: U-69593) were evaluated in a concentration range of 10^-12 to 10^-5 M, a dose-response curve of each test compound was obtained from the fluorescence values at 665 nm, and EC50 value and the Emax value were calculated. The Emax value was calculated as a ratio of the maximum reaction of the test compound to the maximum reaction of each control drug, which is taken as 100%.

Series [3] has as its system Wistar male rats. The series can be described thus: Rat elevated plus maze test. Format: in vivo. The protocol:
Rat Elevated Plus Maze Test
An anxiolytic effect of a compound provided by the present invention was examined using the rat elevated plus maze test.
For the test, 7 to 9 weeks old Wistar male rats were used. […] Each test substance was dissolved in a 4.5% aqueous solution of cyclodextrin, and orally administered 2 hours before the start of the test. The test data were automatically analyzed by using video image action analysis software (Smart3.0, PanLab S.L., PanLab), and wall-less running route staying time ratio (%) was calculated.

For series [4], the system named is C57BL/6N male mice. The series can be described thus: Mouse elevated plus maze test. The series is classed as in vivo. The following applies: 0.3 mg/kg subcutaneous administration, 30 minutes before test (FIG. 1). The protocol:
Mouse Elevated Plus Maze Test
For the test, 5 to 6 weeks old C57BL/6N male mice were used. On a plus maze apparatus consisting of a wall-less running route (open arm, width 6 cm, length 30 cm) and a running route with a wall (closed arm, width 6 cm, length 30 cm, height of wall 15 cm), and having a height of 40 cm, a mouse was put so as to be directed to the running route with a wall, and allowed to spontaneously enter into the plus maze. Each test substance was dissolved in saline or 0.005 N HCl in saline, and subcutaneously administered on the back 30 minutes before the start of the test. At the time of the start of the test, video recording with a video camera was started, the time at which the mouse entered into the plus maze is considered to be the start of the test, and exploratory behavior was recorded for 5 minutes. On the basis of the video image, staying time in the running routes were determined, and wall-less running route staying time ratio (%) was calculated.

A short description of series [5]: Intracerebral migration test (concentration in cerebrospinal fluid and plasma). Format: in vivo. The following applies: male, Wistar, sc, rat, 3 mg/kg s.c., 30 minutes after administration. The protocol: Intracerebral Migration Test
A Wistar male 5-9 week old rat was used for the test. A test substance was dissolved in saline or a 4.5% cyclodextrin aqueous solution, and 1 mol/L hydrochloric acid (0.5 to 2.0 v/v %) was added thereto as necessary. The test substance was subcutaneously administered to the rat at a dose of 3 or 10 mg/kg. Thirty minutes later, cerebrospinal fluid was collected from the cisterna magna under isoflurane anesthesia. Subsequently, laparotomy was performed, and blood was collected from the vena cava. Thereafter, the blood was centrifuged at 1500×g at 4° C. for 15 minutes to obtain plasma. The animal was euthanized promptly by aortic cutting. The concentrations of the test substance in cerebrospinal fluid and plasma were measured using LC-MS/MS.

The target in series [6] is T3, human opioid κ receptor (Homo sapiens, UniProt P41145).
T3 construct: host or cells: CHO cells
The series is described as follows: Opioid receptor function test (Lance Ultra cAMP Kit), κ receptor. Format: cell-based. The protocol:
as §1, §2, §3

Series [7] concerns the target T4, human opioid μ receptor (Homo sapiens, UniProt P35372).
T4 construct: host or cells: CHO cells
The series can be described thus: Opioid receptor function test (Lance Ultra cAMP Kit), μ receptor. Format: cell-based. The following applies: for EC50: CHO cells expressing human μ receptor, cAMP, N.C. = maximum reaction not reached at highest concentration (10 μM), not calculated, read-out: μ receptor EC° C. The protocol: as §1, §2, §3

The mark [8] stands for this setting: read-out: κ receptor Emax (*reaction rate at the highest concentration, reference value).
The mark [9] stands for this setting: ratio to maximum reaction of control drug DAMGO (100%), read-out: μ receptor Emax.
[10] abbreviates: read-out: μ receptor Emax (*reaction rate at the highest concentration, reference value).

Structures can show the parent of a compound that is named as a salt. Where two headings read alike, the source gives them in different places. A value given as a limit tells only on which side of the number the result lay.

T1 sequence (Q12809 whole entry): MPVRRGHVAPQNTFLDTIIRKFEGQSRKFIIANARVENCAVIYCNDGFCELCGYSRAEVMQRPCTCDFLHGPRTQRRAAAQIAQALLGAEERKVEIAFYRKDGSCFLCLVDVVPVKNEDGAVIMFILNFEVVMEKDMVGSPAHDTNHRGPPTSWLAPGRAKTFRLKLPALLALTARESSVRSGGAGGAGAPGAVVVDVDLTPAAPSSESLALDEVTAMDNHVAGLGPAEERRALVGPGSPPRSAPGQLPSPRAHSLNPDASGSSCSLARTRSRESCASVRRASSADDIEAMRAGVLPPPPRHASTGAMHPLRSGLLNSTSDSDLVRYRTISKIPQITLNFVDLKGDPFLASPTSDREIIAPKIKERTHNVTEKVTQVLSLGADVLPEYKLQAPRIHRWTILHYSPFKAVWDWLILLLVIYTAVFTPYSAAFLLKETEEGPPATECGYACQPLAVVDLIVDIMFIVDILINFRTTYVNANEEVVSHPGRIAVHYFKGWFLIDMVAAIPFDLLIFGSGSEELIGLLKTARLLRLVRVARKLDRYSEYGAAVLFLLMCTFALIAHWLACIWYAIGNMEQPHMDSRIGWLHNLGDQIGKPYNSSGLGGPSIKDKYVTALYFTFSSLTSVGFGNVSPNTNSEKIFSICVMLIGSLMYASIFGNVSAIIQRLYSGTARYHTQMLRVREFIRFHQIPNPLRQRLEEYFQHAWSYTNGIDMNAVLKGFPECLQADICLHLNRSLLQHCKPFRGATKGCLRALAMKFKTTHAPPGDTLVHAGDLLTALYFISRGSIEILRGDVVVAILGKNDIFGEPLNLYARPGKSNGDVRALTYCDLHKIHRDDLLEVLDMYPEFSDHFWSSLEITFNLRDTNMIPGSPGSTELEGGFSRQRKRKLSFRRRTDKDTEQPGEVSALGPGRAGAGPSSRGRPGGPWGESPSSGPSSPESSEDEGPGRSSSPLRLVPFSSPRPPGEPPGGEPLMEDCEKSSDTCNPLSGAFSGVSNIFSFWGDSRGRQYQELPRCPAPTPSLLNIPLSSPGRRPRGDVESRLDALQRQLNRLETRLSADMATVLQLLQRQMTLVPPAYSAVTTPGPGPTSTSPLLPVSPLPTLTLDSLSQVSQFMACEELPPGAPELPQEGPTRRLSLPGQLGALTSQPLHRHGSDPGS
T3 sequence (P41145 whole entry): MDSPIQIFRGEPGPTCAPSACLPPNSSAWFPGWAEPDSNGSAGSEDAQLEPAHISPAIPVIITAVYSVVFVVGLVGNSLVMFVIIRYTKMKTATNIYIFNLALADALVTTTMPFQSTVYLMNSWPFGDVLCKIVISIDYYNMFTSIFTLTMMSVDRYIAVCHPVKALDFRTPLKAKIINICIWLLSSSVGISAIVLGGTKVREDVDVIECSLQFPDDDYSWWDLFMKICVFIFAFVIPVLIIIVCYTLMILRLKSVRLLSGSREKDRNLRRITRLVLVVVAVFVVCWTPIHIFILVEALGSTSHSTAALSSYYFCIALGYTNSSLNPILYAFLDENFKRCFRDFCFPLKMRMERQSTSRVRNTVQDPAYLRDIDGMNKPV
T2 sequence (P41143 whole entry): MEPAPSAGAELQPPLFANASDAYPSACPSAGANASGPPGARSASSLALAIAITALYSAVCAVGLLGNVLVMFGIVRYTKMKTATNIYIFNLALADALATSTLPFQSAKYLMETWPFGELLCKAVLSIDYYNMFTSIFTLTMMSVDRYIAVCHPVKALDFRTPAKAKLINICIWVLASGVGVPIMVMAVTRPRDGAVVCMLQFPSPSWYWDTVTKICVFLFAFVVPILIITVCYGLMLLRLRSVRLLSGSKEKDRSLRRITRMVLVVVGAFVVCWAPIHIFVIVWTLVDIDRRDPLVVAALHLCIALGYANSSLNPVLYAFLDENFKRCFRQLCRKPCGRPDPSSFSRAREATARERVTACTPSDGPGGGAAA
T4 sequence (P35372 whole entry): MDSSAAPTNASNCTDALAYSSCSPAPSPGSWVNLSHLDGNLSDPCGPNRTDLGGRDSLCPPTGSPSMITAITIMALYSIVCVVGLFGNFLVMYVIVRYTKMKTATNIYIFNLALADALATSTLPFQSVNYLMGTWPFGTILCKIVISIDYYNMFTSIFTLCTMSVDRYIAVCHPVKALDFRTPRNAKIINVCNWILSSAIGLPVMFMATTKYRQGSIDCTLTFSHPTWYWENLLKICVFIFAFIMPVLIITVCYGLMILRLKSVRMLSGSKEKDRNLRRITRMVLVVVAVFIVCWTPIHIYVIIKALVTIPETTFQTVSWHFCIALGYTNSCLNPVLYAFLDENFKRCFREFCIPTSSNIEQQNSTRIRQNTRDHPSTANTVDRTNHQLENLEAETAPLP

Take `O=C([C@H]1CCCO1)N1C[C@H]2CC34CCC1C2C31CCNC4Cc2ccc(O)cc21` (stereo partly drawn) [Example 14, ((1S,3aR,5aS,6R,11bR,11cS)-10-hydroxy-1,2,3a,4,5,6,7,11c-octahydro-3H-6,11b-(epiinoetano)-1,5a-methanonaphtho[1,2-e]indol-3-yl) ((R)-tetrahydrofuran-2-yl) methanone]: in series [1], the “hERG channel inhibitory effect (in words)” value was “only a weak inhibitory effect”. Moreover, in series [1] (concentration 10 μM), the “hERG channel inhibitory effect” value is less than 50%.
With `O=C([C@H]1CCCO1)N1C[C@H]2CC34CCC1C2C31CCN(CC2CC2)C4Cc2ccc(O)cc21` (stereo partly drawn) [Example 12, ((1S,3aR,5aS,6R,11bR,11cS)-14-(cyclopropylmethyl)-10-hydroxy-1,2,3a,4,5,6,7,11c-octahydro-3H-6,11b-(epiinoetano)-1,5a-methanonaphtho[1,2-e]indol-3-yl) ((R)-tetrahydrofuran-2-yl) methanone], the results for the EC50 in series [2] and in series [7] were less than 1 nM and more than 1 nM, respectively. The Emax in series [2] was found to be 85%; in series [6] (setting [8]), 8.7%; in series [7] (setting [9]) it was 12%. In addition, the “hERG channel inhibitory effect” value in series [1] (concentration 1 μM) was less than 50%. In addition, the “minimum effective medicinal dose” value in series [3] (rat elevated plus maze test, p. o.) was found to be 0.3 mg/kg. In addition, the “wall-less traveling path residence time rate” value in series [3] (rat, 0.3 mg/kg oral administration, 2 hours before test (FIG. 2)) was “significantly increases”; in series [4], “significantly increases”. In addition, the concentration at 30 min is 42 nM in series [5] (cerebrospinal fluid, read-out: Concentration in cerebrospinal fluid) and 580 nM in series [5] (plasma, read-out: Concentration in plasma).
`CN1CCC[C@@H]1C(=O)N1C[C@H]2C[C@@]34CC[C@@H]1[C@@H]2[C@@]31CCN(CC2CC2)[C@@H]4Cc2ccc(O)cc21` [Example 9, (1S,3aR,5aS,6R,11bR,11cS)-14-(cyclopropylmethyl)-10-hydroxy-3-(methyl-D-prolyl)-2,3,3a,4,5,6,7,11c-octahydro-1H-6,11b-(epiminoethano)-1,5a-methanonaphtho[1,2-e]indol]: in series [2], the EC50 is less than 3 nM. Moreover, the Emax was 64% in series [2], 3.7% in series [6] (setting [8]) and -0.6% in series [7] (setting [10]).
For `O=C([C@H]1CCCCN1)N1C[C@H]2C[C@@]34CC[C@@H]1[C@@H]2[C@@]31CCN(CC2CC2)[C@@H]4Cc2ccc(O)cc21` [Example 4, ((1S,3aR,5aS,6R,11bR,11cS)-14-(cyclopropylmethyl)-10-hydroxy-1,2,3a,4,5,6,7,11c-octahydro-3H-6,11b-(epiminoethano)-1,5a-methanonaphtho[1,2-e]indol-3-yl) ((R)-piperidin-2-yl) methanone dihydrochloride], in series [2], the EC50 was less than 3 nM. Besides, the Emax is 82% in series [2], 5% in series [6] (setting [8]) and 0.87% in series [7] (setting [10]). The “hERG channel inhibitory effect (in words)” value in series [1] is listed as “only a weak inhibitory effect”. Moreover, in series [1] (concentration 10 μM), the “hERG channel inhibitory effect” value was less than 50%.
As for `O=C([C@H]1CCCNC1)N1C[C@H]2C[C@@]34CC[C@@H]1[C@@H]2[C@@]31CCN(CC2CC2)[C@@H]4Cc2ccc(O)cc21` [Example 6, ((1S,3aR,5aS,6R,11bR,11cS)-14-(cyclopropylmethyl)-10-hydroxy-1,2,3a,4,5,6,7,11c-octahydro-3H-6,11b-(epiminoethano)-1,5a-methanonaphtho[1,2-e]indol-3-yl) ((S)-piperidin-3-yl) methanone dihydrochloride], the EC50 in series [2] was less than 3 nM; in series [6] it was less than 1 nM. Also, the Emax in series [2] stood at 74%; in series [6] (read-out: κ receptor Emax) it was 11%; in series [7] (setting [10]) it was 5.5%.
Consider `O=C1CC[C@H](C(=O)N2C[C@H]3C[C@@]45CC[C@@H]2[C@@H]3[C@@]42CCN(CC3CC3)[C@@H]5Cc3ccc(O)cc32)O1` [Example 13, (R)-5-((1S,3aR,5aS,6R,11bR,11cS)-14-(cyclopropylmethyl)-10-hydroxy-2,3,3a,4,5,6,7,11c-octahydro-1H-6,11b-(epiminoethano)-1,5a-methanonaphtho[1,2-e]indole-3-carbonyl) dihydrofuran-2(3H)-one], for which the EC50 in series [2] is less than 3 nM; in series [6] (CHO cells expressing human κ receptor, cAMP, N.C. = maximum reaction not reached at highest concentration (10 μM), not calculated, read-out: κ receptor EC° C.), less than 1 nM; in series [7], more than 1 nM. In addition, the Emax in series [2] worked out at 70%; in series [6] (ratio to maximum reaction of control drug U-69593 (100%), read-out: κ receptor Emax) it was 13%; in series [7] (setting [9]), 35%. The “hERG channel inhibitory effect” value in series [1] (concentration 1 μM) is given as less than 50%.
For the compound `O=C([C@H]1CCCN1)N1C[C@H]2C[C@@]34CC[C@@H]1[C@@H]2[C@@]31CCN(CC2CC2)[C@@H]4Cc2ccc(O)cc21` [Example 2, (1S,3aR,5aS,6R,11bR,11cS)-3-(D-prolyl)-14-(cyclopropylmethyl)-10-hydroxy-2,3,3a,4,5,6,7,11c-octahydro-1H-6,11b-(epiminoethano)-1,5a-methanonaphtho[1,2-e]indole dihydrochloride], the EC50 in series [2] is less than 3 nM. The Emax in series [2] worked out at 95%; in series [6] (setting [8]), 3.8%; in series [7] (setting [10]), 3.8%. Also, in series [1], the “hERG channel inhibitory effect (in words)” value is “only a weak inhibitory effect”. Also, the “hERG channel inhibitory effect” value in series [1] (concentration 10 μM) is on record as less than 50%.
